Measurements reported in patent US20240010704A1, “CHIMERIC SENSOR PROTEIN AND METHODS OF USE THEREOF” (Universitaet Leipzig, priority 2020, published 2024).

Assays:
[1] = biological target: T1, γ-secretase (Drosophila melanogaster, UniProt O02194); experiment: Luciferase reporter assay in S2 cells, pharmacological inhibition of γ-secretase activity by DAPT; format: cell-based; settings: for reporter activity without DAPT vs. with 10 μM DAPT: FIG. 8C
T1 construct: endogenous in cells; host or cells: Drosophila S2 cells
T1 sequence (O02194 whole entry): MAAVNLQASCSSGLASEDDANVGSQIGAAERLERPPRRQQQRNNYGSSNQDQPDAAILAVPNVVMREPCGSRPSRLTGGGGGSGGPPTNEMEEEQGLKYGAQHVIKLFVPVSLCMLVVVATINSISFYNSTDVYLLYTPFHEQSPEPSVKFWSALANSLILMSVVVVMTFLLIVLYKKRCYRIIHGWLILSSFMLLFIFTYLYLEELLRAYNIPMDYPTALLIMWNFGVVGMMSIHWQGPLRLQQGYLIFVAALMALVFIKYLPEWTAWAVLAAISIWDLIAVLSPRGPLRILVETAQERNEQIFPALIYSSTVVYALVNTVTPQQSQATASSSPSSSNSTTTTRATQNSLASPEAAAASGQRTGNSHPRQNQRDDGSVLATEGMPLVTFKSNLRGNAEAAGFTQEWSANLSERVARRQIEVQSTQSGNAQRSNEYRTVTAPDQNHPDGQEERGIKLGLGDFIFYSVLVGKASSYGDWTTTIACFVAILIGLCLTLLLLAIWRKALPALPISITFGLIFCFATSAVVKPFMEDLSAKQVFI
T1 sequence (Q9VC27 23-695 partner): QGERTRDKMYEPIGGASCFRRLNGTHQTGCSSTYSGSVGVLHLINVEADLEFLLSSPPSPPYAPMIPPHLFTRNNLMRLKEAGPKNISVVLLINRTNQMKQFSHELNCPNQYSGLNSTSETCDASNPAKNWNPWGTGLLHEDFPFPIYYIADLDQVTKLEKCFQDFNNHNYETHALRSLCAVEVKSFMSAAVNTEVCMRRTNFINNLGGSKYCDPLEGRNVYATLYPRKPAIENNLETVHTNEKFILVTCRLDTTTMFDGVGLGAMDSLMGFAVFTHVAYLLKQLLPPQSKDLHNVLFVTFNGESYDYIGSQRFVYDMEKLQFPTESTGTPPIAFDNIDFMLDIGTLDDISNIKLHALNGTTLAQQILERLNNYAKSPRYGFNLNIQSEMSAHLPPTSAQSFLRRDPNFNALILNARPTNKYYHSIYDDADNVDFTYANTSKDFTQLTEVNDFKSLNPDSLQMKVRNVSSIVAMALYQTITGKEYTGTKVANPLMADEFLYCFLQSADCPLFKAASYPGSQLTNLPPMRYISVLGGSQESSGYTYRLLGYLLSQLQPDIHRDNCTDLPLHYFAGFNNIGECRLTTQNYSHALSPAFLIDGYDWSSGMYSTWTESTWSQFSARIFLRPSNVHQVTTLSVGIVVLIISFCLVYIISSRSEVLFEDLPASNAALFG
T1 sequence (Q9VQG2 whole entry partner): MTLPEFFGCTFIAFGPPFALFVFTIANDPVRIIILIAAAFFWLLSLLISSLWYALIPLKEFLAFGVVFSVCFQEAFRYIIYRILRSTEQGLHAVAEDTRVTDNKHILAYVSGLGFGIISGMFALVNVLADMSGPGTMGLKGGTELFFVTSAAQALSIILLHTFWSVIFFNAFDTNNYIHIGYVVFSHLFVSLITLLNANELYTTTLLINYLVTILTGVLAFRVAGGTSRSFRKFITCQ
T1 sequence (Q86BE9 whole entry partner): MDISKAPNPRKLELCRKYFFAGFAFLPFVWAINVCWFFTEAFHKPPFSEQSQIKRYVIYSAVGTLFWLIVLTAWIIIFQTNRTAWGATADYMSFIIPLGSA
Description: (§1) For transfection, mini- or midi-prepped plasmid DNA (Qiagen) for each construct was adjusted to a stock concentration 100 ng/μl using a nanophotometer (Implen). For individual transfections a total amount of 200 ng DNA per 96-well plate well was used and always contained 30 ng of lexAop>FLuc2 (test construct reporter) and Act5.1Cp>RLuc (transfection control reporter), respectively. Test constructs (X-NRS-LexA) and TEV protease plasmids were added at 1:1 ratio (equimolarly adjusted to lexAop>FLuc2) to the DNA mixes; each DNA mix was supplemented with empty pBSK-SK+ vector (Stratagene) to 200 ng. S2 cells were cultured in Schneider's Drosophila medium (Invitrogen, Cat. no. 21720-024). Cultures were maintained in an air incubator at 25° C. S2 cells were split and plated into individual wells of a 96-well plate at a concentration of 5×10^5/well on day 0. 24 hours after plating (day 1), cells were transfected with Lipofectamine 2000 (Invitrogen, #11668019) with the suitable 1:1 plasmid/reagent mixture according to manufacturer's instructions and incubated for 48 hours. When induction of the metallothionein-promoter was required, CuSO4 stock medium was added in each well of the experiment to a final concentration of 0.5 mM CuSO4 24 hrs after transfection (day 2).
(§2) Cells were lysed on day 3 (48 hrs after transfection) and luciferase measurements with the Dual-Glo luciferase assay system (Promega) were performed according to the manufacturer's protocol. In brief, the supernatant was removed from each well by aspiration and cells were incubated with 200 μl passive lysis buffer on a shaker at room temperature for 30 min. Lysates were analyzed in 96-well plates with a Victor2 plate reader luminometer (PerkinElmer). Firefly and Renilla luciferase luminescence signals were collected for 10 s. Relative luciferase activities were calculated for each sample individually as principally described in Potter et al. (ref. 23) according to the following formula:
(F/R)Empty=(Σi=1^nFEmpty^i/REmpty^i)/n,
(§3) where n=number of control samples; F=Firefly luciferase luminescence signal; R=Renilla luciferase luminescence signal; Empty=lexAop>FLuc2+Ac5.1p>RLuc+BSK-SK+. Each condition was executed at least in triplicate, the average and SEM were determined for each condition, and statistical significance was evaluated using Student's t test. Plasmids used for transfection in S2 cells were: N^ECN-LexA, N^EGF-LexA, ChiN-Test, pChiN1, pChiN2, pChiN3, lexAop-FLuc2, Ac5.1-RLuc, secTEVp, intraTEVp, pBSK-SK+.

[2] = test system: lexAop-FLuc reporter in Drosophila Schneider 2 (S2) cells; experiment: Luciferase (lexAop-FLuc) reporter assay of NRS sensor constructs in S2 cells; format: cell-based; settings: FIG. 9; for reporter activity in luciferase assays: S2 cells
Description: In order to conceptually establish the approach to fuse heterologous ECRs to the Notch^ITS to suppress its proteolytic activation, a sensor protein containing 4 immunoglobulin (Ig) domains of the human CD4 receptor fused to the Notch^ITS was engineered^28 (FIG. 7A).
As a positive control a constitutively active N^ECN-LexA receptor^34 with a constantly exposed S2 cleavage site was included (FIG. 7A,B).
Next, the extracellular CD4 repeats of the sensor protein were replaced with the ECR of an aGPCR, the Latrophilin/ADGRL-homolog CIRL/CG8639 (calcium independent receptor of α-latrotoxin) to enable the NRS to detect the physical dissociation of the NTF-CTF complex within the GAIN domain when appended to the Notch^ITS. Thus, the entire ECR of CIRL (including the GAIN domain, GPS, tethered agonist segment and predicted linker to the 7TM domain) was N-terminally fused to the NRS core (CIRL-NRS-LexA; FIG. 9). […] In order to distinguish between these two possibilities, we mutated the GPS of the sensor at the −2 position of its catalytic triad and replaced the conserved Histidin by an Alanine (FIG. 9) to block GAIN domain self-cleavage and eventual NTF release. […] This set of experiments establishes that the CIRL-NRS-LexA NRS can be used for monitoring the integrity of the NTF-CTF heterodimer clamped by the GAIN domain of CIRL.
as §1
as §2, with “In brief, the supernatant was removed from each well by aspiration and cells were incubated with 200 μl passive lysis buffer on a shaker at room temperature for 30 min.” left out, “formula: […]” for “formula:”
as §3, with “Plasmids used for transfection in S2 cells were: N^ECN-LexA, N^EGF-LexA, ChiN-Test, pChiN1, pChiN2, pChiN3, lexAop-FLuc2, Ac5.1-RLuc, secTEVp, intraTEVp, pBSK-SK+.” left out

[3] = test system: Drosophila melanogaster; experiment: In vivo expression analysis of genomically integrated cirl-NRS sensors (transcriptionally activated mCherry reporter); settings: adult animals; for sensor activity (lexAop-mCherry reporter expression): FIG. 11
Description: To test the utility of the NRS sensor principle in vivo, an existing genomic engineering platform^13,35 was used to encode NRS sensors in alleles of the adhesion GPCR cirl/CG8639 of Drosophila melanogaster. This places CIRL-NRS expression under the endogenous regulatory control of the cirl locus (FIG. 10A). The NRS design was adapted to generate minigenes for cirl-NRS-LexA, cirl^H>A-NRS-LexA and cirl-NRS^S3-LexA by fusing the genomic fragment encoding the CIRL-ECR to the NRS-LexA cDNA (FIG. 10A,B). The resulting transgenes were inserted in the cirl gene using phiC31-assisted transformation generating fly stocks expressing the different sensors variants from the cirl locus.
Next, the functionality of CIRL-NRS was further studied in anatomical expression analyses.
To control for potential misexpression inherent to the LexA transcriptional reporter, additional cirl-NRS transgenes alternatively terminating in Ga/4 or QF2 transcription factor cassettes were generated an analysed.

| Molecule | effect on reporter activity ([1]; 10 μM DAPT, S2 cells) | reporter activity without DAPT vs. with 10 μM DAPT ([1]; CD4-6TEVs-NRS-LexA construct) | reporter activity without DAPT vs. with 10 μM DAPT ([1]; CD4-6TEVs-NRS-LexA+intraTEVp) | reporter activity without DAPT vs. with 10 μM DAPT ([1]; CD4-6TEVs-NRS-LexA+secTEVp) | reporter activity without DAPT vs. with 10 μM DAPT ([1]; Control) | reporter activity without DAPT vs. with 10 μM DAPT ([1]; N^ECN-LexA construct) | reporter activity without DAPT vs. with 10 μM DAPT ([1]; N^EGF-LexA construct) | reporter activity in luciferase assays [2] | luciferase reporter activity, fold difference ([2]; vs. Cirl-NRS^S3-LexA) | luciferase reporter activity, fold difference ([2]; vs. Cirl^H>A-NRS-LexA) | sensor activity (lexAop-mCherry reporter expression) [3] | expression pattern with matching reporter transgenes ([3]; FIG. 12) |
| --- | --- | --- | --- | --- | --- | --- | --- | --- | --- | --- | --- | --- |
| C[C@H](NC(=O)Cc1cc(F)cc(F)c1)C(=O)N[C@H](C(=O)OC(C)(C)C)c1ccccc1 [DAPT] | abolished reporter activity | 3.6 × | 7.0 × | 23.4 × | 1.1 × | 43.7 × | 5.8 × | – | – | – | – | – |
| CIRL-NRS-LexA: entire ECR of CIRL N-terminally fused to the NRS core; full-length NTF release sensor for dmCIRL (protein, Full-length NTF release sensor for dmCIRL used in Example 2) MKLCILLAVVAFVGLSLGETGFPKSLSVLNSRCAHKQSCGVLAATSMFGDPCPGTHKYLEAHYQCISAAQTSTTTNRPSPPPWVLSNGPPIFGNGSGLIHPPGVGAGAPPPPRLPTLPGVVGISGNPGLFNVPPQHTAVTHSTPSSSTTAVGGGRLKGGATSTTTTKHPAGRHDGLPPPPQLHHHHNHHGEDTASPTKPSSKLPAGGNATSPSNTRILTGVGGSGTDDGTLLTTKSSPNRPPGTAASGSVVPGNGSVVRTINNINLNAAGMSGGDDESKLFCGPTHARNLYWNMTRVGDVNVQPCPGGAAGIAKWRCVLMKRIPDSGYDEYDDDISSTTPAPSGGDCLHNSSSCEPPVSMAHKVNQRLRNFEPTWHPATPDLTQCRSLWLNNLEMRVNQRDSSLISIANDMSEVTSSKTLYGGDMLVTTKIIQTVSEKMMHDKETFPDQRQREAMIMELLHCVVKTGSNLLDESQLSSWLDLNPEDQMRVATSLLTGLEYNAFLLADTIIRERSVVQKVKNILLSVRVLETKTIQSSVVFPDSDQWPLSSDRIELPRAALIDNSEGGLVRIVFAAFDRLESILKPSYDHFDLKSSRSYAILSNDSDVNAGEIQQRLRILNSKVISASLGKGRHIQLSQPITLTLKHLKTENVTNPTCVFWNYIDHAWSANGCSLESTNRTHSVCSCNHLTNFAILMDVVDEHQHSLFTMFDGNMRPRIDTAAKHQLRNDFQIHSVRGIKNPGDEDNGEPPANVKYVITGIILVIIALAFFGMVLSTQRKRSGPPKLKALTARQQEVFDLIRDHISQTGMPPTRAEIAQRLGFRSPNAAEEHLKALARKGVIEIVSGASRGIRLLQEEEEGLPLVGRVAAGEPLLAQQHIEGHYQVDPSLFKPNADFLLRVSGMSMKDIGIMDGDLLAVHKTQDVRNGQVVVARIDDEVTVKRLKKQGNKVELLPENSEFKPIVVDLRQQSFTIEGLAVGVIRNGDWLEFPGIRRPAGIPGDLAPPTDVSLGDELHLDGEDVAMAHADALDDFDLDMLGDGDSPGPGFTPHDSAPYGALDMADFEFEQMFTDALGIDEYGGASRYLDPAFLYKVVSSATMDYKDHDGDYKDHDIDYKDDDDKHRST | – | – | – | – | – | – | – | high activity | 23.7 × | 148.8 × | strong expression in the eye, proboscis and leg neurons | strong activation |
| CIRL^H>A-NRS-LexA: NTF release sensor for dmCIRL, GPS cleavage site mutated (His to Ala at −2) (protein, Full-length NTF release sensor for dmCIRL (GPS cleavage site mutated)) MKLCILLAVVAFVGLSLGETGFPKSLSVLNSRCAHKQSCGVLAATSMFGDPCPGTHKYLEAHYQCISAAQTSTTTNRPSPPPWVLSNGPPIFGNGSGLIHPPGVGAGAPPPPRLPTLPGVVGISGNPGLFNVPPQHTAVTHSTPSSSTTAVGGGRLKGGATSTTTTKHPAGRHDGLPPPPQLHHHHNHHGEDTASPTKPSSKLPAGGNATSPSNTRILTGVGGSGTDDGTLLTTKSSPNRPPGTAASGSVVPGNGSVVRTINNINLNAAGMSGGDDESKLFCGPTHARNLYWNMTRVGDVNVQPCPGGAAGIAKWRCVLMKRIPDSGYDEYDDDISSTTPAPSGGDCLHNSSSCEPPVSMAHKVNQRLRNFEPTWHPATPDLTQCRSLWLNNLEMRVNQRDSSLISIANDMSEVTSSKTLYGGDMLVTTKIIQTVSEKMMHDKETFPDQRQREAMIMELLHCVVKTGSNLLDESQLSSWLDLNPEDQMRVATSLLTGLEYNAFLLADTIIRERSVVQKVKNILLSVRVLETKTIQSSVVFPDSDQWPLSSDRIELPRAALIDNSEGGLVRIVFAAFDRLESILKPSYDHFDLKSSRSYAILSNDSDVNAGEIQQRLRILNSKVISASLGKGRHIQLSQPITLTLKHLKTENVTNPTCVFWNYIDHAWSANGCSLESTNRTHSVCSCNALTNFAILMDVVDEHQHSLFTMFDGNMRPRIDTAAKHQLRNDFQIHSVRGIKNPGDEDNGEPPANVKYVITGIILVIIALAFFGMVLSTQRKRSGPPKLKALTARQQEVFDLIRDHISQTGMPPTRAEIAQRLGFRSPNAAEEHLKALARKGVIEIVSGASRGIRLLQEEEEGLPLVGRVAAGEPLLAQQHIEGHYQVDPSLFKPNADFLLRVSGMSMKDIGIMDGDLLAVHKTQDVRNGQVVVARIDDEVTVKRLKKQGNKVELLPENSEFKPIVVDLRQQSFTIEGLAVGVIRNGDWLEFPGIRRPAGIPGDLAPPTDVSLGDELHLDGEDVAMAHADALDDFDLDMLGDGDSPGPGFTPHDSAPYGALDMADFEFEQMFTDALGIDEYGGASRYLDPAFLYKVVSSATMDYKDHDGDYKDHDIDYKDDDDKHRST | – | – | – | – | – | – | – | no reporter activity | – | – | abrogated NRS activation | – |
